For experiment [1], the target named is GDP-bound NRAS wild-type protein (Homo sapiens, UniProt P01111). Kind of experiment: Binding to NRAS by surface plasmon resonance (SPR), Single Cycle Kinetics. The following applies: SPR; GDP-bound NRAS wild-type protein vs GDP-bound KRAS wild-type protein; KD ratio class. (In general: SPR reads the build-up and loss of mass on a sensor chip optically.)
The subject of experiment [2] is human lung cancer strain NCI-H441.
Experiment [3] deals with GDP-bound KRAS wild-type protein (Homo sapiens, UniProt P01116). Kind of experiment: Binding to KRAS by surface plasmon resonance (SPR), Single Cycle Kinetics. The following applies: SPR, Single Cycle Kinetics, 1:1 binding model; GDP-bound KRAS wild-type protein; read-out: KRAS KD.
Sequence of GDP-bound KRAS wild-type protein (P01116 whole entry): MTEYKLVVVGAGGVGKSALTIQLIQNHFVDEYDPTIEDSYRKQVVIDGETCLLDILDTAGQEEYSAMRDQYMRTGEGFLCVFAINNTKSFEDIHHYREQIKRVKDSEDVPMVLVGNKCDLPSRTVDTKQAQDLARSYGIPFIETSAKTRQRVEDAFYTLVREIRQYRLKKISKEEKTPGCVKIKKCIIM
Experiment [4] deals with GDP-bound HRAS wild-type protein (Homo sapiens, UniProt P01112). Kind of experiment: Binding to HRAS by surface plasmon resonance (SPR), Single Cycle Kinetics. Particulars: SPR; GDP-bound HRAS wild-type protein vs GDP-bound KRAS wild-type protein; KD ratio class.
Sequence of GDP-bound HRAS wild-type protein (P01112 whole entry): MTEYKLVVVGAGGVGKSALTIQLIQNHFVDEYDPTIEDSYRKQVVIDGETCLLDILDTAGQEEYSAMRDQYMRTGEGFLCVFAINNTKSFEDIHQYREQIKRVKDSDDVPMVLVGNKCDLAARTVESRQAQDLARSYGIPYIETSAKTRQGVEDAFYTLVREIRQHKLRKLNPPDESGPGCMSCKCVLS
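Throughout, for IC50: cell proliferation inhibition after four days measured by CellTiter-Glo.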

Sequence of GDP-bound NRAS wild-type protein (P01111 whole entry): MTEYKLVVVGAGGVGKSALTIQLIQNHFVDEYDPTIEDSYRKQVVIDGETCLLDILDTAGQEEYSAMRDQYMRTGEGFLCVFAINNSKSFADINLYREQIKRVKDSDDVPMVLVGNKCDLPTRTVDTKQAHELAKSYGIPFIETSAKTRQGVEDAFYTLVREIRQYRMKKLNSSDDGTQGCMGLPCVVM

What is called IC50 is the concentration at which inhibition is half-maximal. The low end stands for inhibition by little substance, the high end for a need for much substance. A word on the Kd: it is the equilibrium constant for the complex coming apart. As to `CCO[C@@H]1C[C@H]2C(=O)NC3(CCC3)C(=O)N(C)[C@@H](C3CCCC3)C(=O)N(C)[C@@H](C(=O)N(C)C)CC(=O)N(C)[C@@H](CC)C(=O)N[C@@H]([C@@H](C)CC)C(=O)N(C)CC(=O)N(C)[C@H]3C/C=C\CCN(C3=O)[C@@H](Cc3ccc(C(F)(F)F)cc3)C(=O)N(C)CC(=O)N[C@@H](CCc3cc(F)c(C(F)(F)F)c(F)c3)C(=O)N2C1` [PP1234], the “NRAS/KRAS (ratio of KD value for NRAS to KD value for KRAS)” value in experiment [1] is “B (a compound having 3 or more and less than 10 is denoted as B)”. For the same compound, it took 398 nM to reach half-maximal inhibition in experiment [2] (IC50). In addition, the Kd in experiment [3] was 3.8 nM. Besides, the “HRAS/KRAS (ratio of KD value for HRAS to KD value for KRAS)” value in experiment [4] is “C (A compound having a KD ratio of 0.1 or more and less than 3 is denoted as C)”.

Turning to `CCCCCC[C@H]1C(=O)N[C@@H]([C@@H](C)CC)C(=O)N(C)CC(=O)N(C)[C@H]2C/C=C\CCN(C2=O)[C@@H](Cc2ccc(C(F)(F)F)cc2)C(=O)N(C)CC(=O)N[C@@H](CCc2cc(F)c(C(F)(F)F)c(F)c2)C(=O)N2C[C@H](OCC)C[C@H]2C(=O)NC2(CCC2)C(=O)N(C)[C@@H](C2CCCC2)C(=O)N(C)[C@H](C(=O)N(C)C)CC(=O)N1C` [PP1242, (2S,8S,12R,14S,20S,23S,27S,30S,36S,38Z)-20-cyclopentyl-8-[2-[3,5-difluoro-4-(trifluoromethyl)phenyl]ethyl]-12-ethoxy-27-hexyl-N,N,4,19,22,26,32,35-octamethyl-30-[(1S)-1-methylpropyl]-3,6,9,15,18,21,25,28,31,34,42-undecaoxo-2-[[4-(trifluoromethyl)phenyl]methyl]spiro[1,4,7,10,16,19,22,26,29,32,35-undecazatricyclo[34.5.1.0^10,14]dotetracont-38-ene-17,1′-cyclobutane]-23-carboxamide], in experiment [1], the “NRAS/KRAS (ratio of KD value for NRAS to KD value for KRAS)” value is “A (a compound having 10 or more and less than 20 is denoted as A)”. The IC50 in experiment [2] turned out to be 12.8 nM. The Kd in experiment [3] is 0.076 nM. The “HRAS/KRAS (ratio of KD value for HRAS to KD value for KRAS)” value in experiment [4] is “A (a compound having 10 or more and less than 20 is denoted as A)”.

In the case of `CCO[C@@H]1C[C@H]2C(=O)NC3(CCC3)C(=O)N(C)[C@@H](C3CCCC3)C(=O)N(C)[C@H](C(=O)N(C)C)CC(=O)N(C)[C@@H](CC)C(=O)N[C@@H]([C@@H](C)CC)C(=O)N(C)CC(=O)N(C)[C@H]3C/C=C\CCN(C3=O)[C@@H](Cc3ccc(C(F)(F)F)cc3)C(=O)N(C)CC(=O)N[C@@H](CCc3ccc(C(F)(F)F)c(OC)c3)C(=O)N2C1` [PP1243, (2S,8S,12R,14S,20S,23S,27S,30S,36S,38Z)-20-cyclopentyl-12-ethoxy-27-ethyl-8-[2-[3-methoxy-4-(trifluoromethyl)phenyl]ethyl]-N,N,4,19,22,26,32,35-octamethyl-30-[(1S)-1-methylpropyl]-3,6,9,15,18,21,25,28,31,34,42-undecaoxo-2-[[4-(trifluoromethyl)phenyl]methyl]spiro[1,4,7,10,16,19,22,26,29,32,35-undecazatricyclo[34.5.1.0^10,14]dotetracont-38-ene-17,1′-cyclobutane]-23-carboxamide], the “NRAS/KRAS (ratio of KD value for NRAS to KD value for KRAS)” value in experiment [1] was “A (a compound having 10 or more and less than 20 is denoted as A)”. In experiment [2], half-maximal inhibition (IC50) was put at 13.2 nM. Further, in experiment [3], the Kd worked out at 0.058 nM. For the same compound, the “HRAS/KRAS (ratio of KD value for HRAS to KD value for KRAS)” value in experiment [4] is “A (a compound having 10 or more and less than 20 is denoted as A)”.

For the compound `CCC[C@H]1C(=O)N[C@@H]([C@@H](C)CC)C(=O)N(C)CC(=O)N(C)[C@H]2C/C=C\CCN(C2=O)[C@@H](Cc2ccc(C(F)(F)F)cc2)C(=O)N(C)CC(=O)N[C@@H](CCc2ccc(C(F)(F)F)c(OC)c2)C(=O)N2C[C@H](OCC)C[C@H]2C(=O)NC2(CCC2)C(=O)N(C)[C@@H](C2CCCC2)C(=O)N(C)[C@H](C(=O)N(C)C)CC(=O)N1C` [PP1244, (2S,8S,12R,14S,20S,23S,27S,30S,36S,38Z)-20-cyclopentyl-12-ethoxy-8-[2-[3-methoxy-4-(trifluoromethyl)phenyl]ethyl]-N,N,4,19,22,26,32,35-octamethyl-30-[(1S)-1-methylpropyl]-3,6,9,15,18,21,25,28,31,34,42-undecaoxo-27-propyl-2-[[4-(trifluoromethyl)phenyl]methyl]spiro[1,4,7,10,16,19,22,26,29,32,35-undecazatricyclo[34.5.1.0^10,14]dotetracont-38-ene-17,1′-cyclobutane]-23-carboxamide], the “NRAS/KRAS (ratio of KD value for NRAS to KD value for KRAS)” value in experiment [1] was “A (a compound having 10 or more and less than 20 is denoted as A)”. In experiment [2], this compound had an IC50 of 8.9 nM. Further, the Kd in experiment [3] turned out to be 0.061 nM. In addition, in experiment [4], the “HRAS/KRAS (ratio of KD value for HRAS to KD value for KRAS)” value was “B (a compound having 3 or more and less than 10 is denoted as B)”.

Regarding `CCO[C@@H]1C[C@H]2C(=O)NC3(CCC3)C(=O)N(C)[C@@H](C3CCCC3)C(=O)N(C)[C@H](C(=O)N(C)C)CC(=O)N(C)[C@@H](CC(C)C)C(=O)N[C@@H]([C@@H](C)CC)C(=O)N(C)CC(=O)N(C)[C@H]3C/C=C\CCN(C3=O)[C@@H](Cc3ccc(C(F)(F)F)cc3)C(=O)N(C)CC(=O)N[C@@H](CCc3ccc(C(F)(F)F)c(OC)c3)C(=O)N2C1` [PP1245, (2S,8S,12R,14S,20S,23S,27S,30S,36S,38Z)-20-cyclopentyl-12-ethoxy-27-isobutyl-8-[2-[3-methoxy-4-(trifluoromethyl)phenyl]ethyl]-N,N,4,19,22,26,32,35-octamethyl-30-[(1S)-1-methylpropyl]-3,6,9,15,18,21,25,28,31,34,42-undecaoxo-2-[[4-(trifluoromethyl)phenyl]methyl]spiro[1,4,7,10,16,19,22,26,29,32,35-undecazatricyclo[34.5.1.0^10,14]dotetracont-38-ene-17,1′-cyclobutane]-23-carboxamide], in experiment [1], the “NRAS/KRAS (ratio of KD value for NRAS to KD value for KRAS)” value is “A (a compound having 10 or more and less than 20 is denoted as A)”. Further, the IC50 in experiment [2] came out at 3.7 nM. For the same compound, the Kd in experiment [3] was 0.06 nM. Besides, the “HRAS/KRAS (ratio of KD value for HRAS to KD value for KRAS)” value in experiment [4] is “B (a compound having 3 or more and less than 10 is denoted as B)”.

As to `CCCCCC[C@H]1C(=O)N[C@@H]([C@@H](C)CC)C(=O)N(C)CC(=O)N(C)[C@H]2C/C=C\CCN(C2=O)[C@@H](Cc2ccc(C(F)(F)F)cc2)C(=O)N(C)CC(=O)N[C@@H](CCc2ccc(C(F)(F)F)c(OC)c2)C(=O)N2C[C@H](OCC)C[C@H]2C(=O)NC2(CCC2)C(=O)N(C)[C@@H](C2CCCC2)C(=O)N(C)[C@H](C(=O)N(C)C)CC(=O)N1C` [PP1246, (2S,8S,12R,14S,20S,23S,27S,30S,36S,38Z)-20-cyclopentyl-12-ethoxy-27-hexyl-8-[2-[3-methoxy-4-(trifluoromethyl)phenyl]ethyl]-N,N,4,19,22,26,32,35-octamethyl-30-[(1S)-1-methylpropyl]-3,6,9,15,18,21,25,28,31,34,42-undecaoxo-2-[[4-(trifluoromethyl)phenyl]methyl]spiro[1,4,7,10,16,19,22,26,29,32,35-undecazatricyclo[34.5.1.0^10,14]dotetracont-38-ene-17,1′-cyclobutane]-23-carboxamide], in experiment [1], the “NRAS/KRAS (ratio of KD value for NRAS to KD value for KRAS)” value was “A (a compound having 10 or more and less than 20 is denoted as A)”. The IC50 in experiment [2] worked out at 9 nM. In addition, the Kd in experiment [3] amounted to 0.081 nM. In addition, the “HRAS/KRAS (ratio of KD value for HRAS to KD value for KRAS)” value in experiment [4] was “A (a compound having 10 or more and less than 20 is denoted as A)”.

Regarding `CCO[C@@H]1C[C@H]2C(=O)NC3(CCC3)C(=O)N(C)[C@@H](C3CCCC3)C(=O)N(C)[C@H](C(=O)N(C)C)CC(=O)N(C)[C@@H](CC3CC3)C(=O)N[C@@H]([C@@H](C)CC)C(=O)N(C)CC(=O)N(C)[C@H]3C/C=C\CCN(C3=O)[C@@H](Cc3ccc(C(F)(F)F)cc3)C(=O)N(C)CC(=O)N[C@@H](CCc3ccc(C(F)(F)F)c(OC)c3)C(=O)N2C1` [PP1247, (2S,8S,12R,14S,20S,23S,27S,30S,36S,38Z)-20-cyclopentyl-27-(cyclopropylmethyl)-12-ethoxy-8-[2-[3-methoxy-4-(trifluoromethyl)phenyl]ethyl]-N,N,4,19,22,26,32,35-octamethyl-30-[(1S)-1-methylpropyl]-3,6,9,15,18,21,25,28,31,34,42-undecaoxo-2-[[4-(trifluoromethyl)phenyl]methyl]spiro[1,4,7,10,16,19,22,26,29,32,35-undecazatricyclo[34.5.1.0^10,14]dotetracont-38-ene-17,1′-cyclobutane]-23-carboxamide], in experiment [1], the “NRAS/KRAS (ratio of KD value for NRAS to KD value for KRAS)” value is “A (a compound having 10 or more and less than 20 is denoted as A)”. This compound also displayed an IC50 in experiment [2] of 6.4 nM. For the same compound, the Kd in experiment [3] was found to be 0.046 nM. The “HRAS/KRAS (ratio of KD value for HRAS to KD value for KRAS)” value in experiment [4] was “A (a compound having 10 or more and less than 20 is denoted as A)”.

For `CCO[C@@H]1C[C@H]2C(=O)NC3(CCC3)C(=O)N(C)[C@@H](C3CCCC3)C(=O)N(C)[C@H](C(=O)N(C)C)CC(=O)N(C)[C@@H](CC3CCCC3)C(=O)N[C@@H]([C@@H](C)CC)C(=O)N(C)CC(=O)N(C)[C@H]3C/C=C\CCN(C3=O)[C@@H](Cc3ccc(C(F)(F)F)cc3)C(=O)N(C)CC(=O)N[C@@H](CCc3ccc(C(F)(F)F)c(OC)c3)C(=O)N2C1` [PP1248, (2S,8S,12R,14S,20S,23S,27S,30S,36S,38Z)-20-cyclopentyl-27-(cyclopentylmethyl)-12-ethoxy-8-[2-[3-methoxy-4-(trifluoromethyl)phenyl]ethyl]-N,N,4,19,22,26,32,35-octamethyl-30-[(1S)-1-methylpropyl]-3,6,9,15,18,21,25,28,31,34,42-undecaoxo-2-[[4-(trifluoromethyl)phenyl]methyl]spiro[1,4,7,10,16,19,22,26,29,32,35-undecazatricyclo[34.5.1.0^10,14]dotetracont-38-ene-17,1′-cyclobutane]-23-carboxamide], in experiment [1], the “NRAS/KRAS (ratio of KD value for NRAS to KD value for KRAS)” value is “A (a compound having 10 or more and less than 20 is denoted as A)”. The compound also showed an IC50 in experiment [2] of 7.3 nM. Besides, in experiment [3], the Kd came to 0.069 nM. Moreover, the “HRAS/KRAS (ratio of KD value for HRAS to KD value for KRAS)” value in experiment [4] is “A (a compound having 10 or more and less than 20 is denoted as A)”.

Source of the values: US20240158446A1, “CYCLIC COMPOUND HAVING SELECTIVE INHIBITORY ACTION ON KRAS OVER HRAS AND NRAS” (CHUGAI SEIYAKU KABUSHIKI KAISHA, priority 2021, published 2024).
